In patent US9931351B2, “Method for improving leptin resistance” (Kyoto University, priority 2013, dated 2018):

Tests used:
Format in all cases: in vivo
[1] = test system: wild type mice under the high fat diet condition; test: Test Example 1: effects to improve metabolism in wild type mice under a high fat diet condition; conditions: 60% high fat diet, 50 mg/kg/day intraperitoneal once a day, four weeks; for weight of the adipose tissues: epididymal
Experimental: Eight-week old male wild type mice and transgenic mice overexpressing leptin (LepTg) (Ogawa et al. Diabetes 48: 1822-1829, 1999, prepared in Department of Endocrinology and Metabolism, Kyoto University) were divided into three treatment groups, respectively: “standard diet (SD)+vehicle (V)”, “60% high fat diet (HFD)+vehicle”, and “60% high fat diet+Compound 57”. The mice were kept for four weeks with ad libitum feeding, and the body weight and the food intake of the mice were measured. The vehicle and Compound 57 were administered to the mice by intraperitoneal injection once a day. The dosage of Compound 57 was 50 mg/kg/day. After the four weeks the mice were sacrificed and blood, epididymal adipose tissues, and the liver were collected. The weight of the adipose tissues, the liver weight, the liver triglyceride levels, and the plasma levels of glucose, insulin, total cholesterol (T-chol), triglyceride (TG), and nonesterified fatty acid (NEFA) were measured (n=5 for each group). The equivalent dosage of Compound 32 was tested in a similar manner (n=5 for each group).

A-ZIP/F-1 mice = test: Test Example 3: effects to improve metabolism in A-ZIP/F-1 mice, a model of generalized lipodystrophy; conditions: standard diet, 50 mg/kg/day intraperitoneal once a day, four weeks; for level of nonesterified fatty acid / level of total cholesterol / level of triglyceride: plasma
Source text: A-ZIP/F-1 mice, which are used as a model of generalized lipodystrophy, have substantially no white adipocyte and thus cannot produce leptin (Moitra et al. Genes Dev 12: 3168-3181, 1998). Eight-week old male A-ZIP/F-1 mice, gifted from Dr. Reitman of National Institutes of Health, were divided into two treatment groups: “Vehicle (V)” and “Compound 57”. The mice were kept for four weeks with ad libitum feeding of standard diet (SD), and the body weight and the food intake of the mice were measured. The vehicle and Compound 57 were administered to the mice by intraperitoneal injection once a day. The dosage of Compound 57 was 50 mg/kg/day. After the four weeks the mice were sacrificed and blood, epididymal adipose tissues, and the liver were collected. The weight of the adipose tissues, the liver weight, the liver triglyceride levels, the plasma levels of glucose, insulin, total cholesterol (T-chol), triglyceride (TG) and nonesterified fatty acid (NEFA) were measured (n=5 for each group). The equivalent dosage of Compound 32 was tested in a similar manner (n=5 for each group).

[2] = test system: wild type rats under the high fat diet condition; test: Test Example 5: effects to improve metabolism in wild type rats under a high fat diet condition; conditions: 60% high fat diet, 20 mg/kg/day intraperitoneal once a day, four weeks
Experimental: Eight-week old male wild type rats were divided into four treatment groups: “standard diet (SD)+vehicle (V)”, “60% high fat diet (HFD)+vehicle”, “60% high fat diet+Compound 57”, and “60% high fat diet+Compound 32”. The rats were kept for four weeks with ad libitum feeding, and the body weight of the rats was measured. The vehicle, Compound 32 and Compound 57 were administered to the rats by intraperitoneal injection once a day. The each dosage of Compounds 32 and 57 was 20 mg/kg/day. After the four weeks the rats were sacrificed, blood was collected, and the plasma levels of glucose and insulin were measured (n=5 for each group).

[3] = test system: leptin-deficient Lepmkyo/Lepmkyo rats; test: Test Example 6: effects to improve metabolism in leptin-deficient Lepmkyo/Lepmkyo rats; conditions: standard diet, 20 mg/kg/day intraperitoneal once a day, four weeks; for body weight: versus vehicle
Experimental: Lepmkyo/Lepmkyo rats cannot produce leptin due to a mutation in the leptin gene (Aizawa-Abe et al. Physiol Genomics 45: 786-793, 2013, prepared in Institute of Laboratory Animals, Graduate School of Medicine, Kyoto University). Eight-week old male Lepmkyo/Lepmkyo rats were divided into three treatment groups: “Vehicle (V)”, “Compound 57”, and “Compound 32”. The rats were kept for four weeks with ad libitum feeding of standard diet, and the body weight of the rats were measured. The vehicle, Compound 57, and Compound 32 were administered to the rats by intraperitoneal injection once a day. The each dosage of Compounds 57 and 32 was 20 mg/kg/day. After the four weeks the rats were sacrificed, blood was collected, and the plasma levels of glucose and insulin were measured (n =5 for each group).

| Structure (SMILES) | body weight [1] | food intake [1] | liver triglyceride levels [1] | liver weight [1] | plasma insulin levels [1] | plasma level of nonesterified fatty acid [1] | plasma level of total cholesterol [1] | plasma level of triglyceride [1] | random plasma glucose levels [1] | weight of the adipose tissues [1] | body weight (A-ZIP/F-1 mice) | food intake (A-ZIP/F-1 mice) | liver triglyceride levels (A-ZIP/F-1 mice) | liver weight (A-ZIP/F-1 mice) | plasma insulin levels (A-ZIP/F-1 mice) | random plasma glucose levels (A-ZIP/F-1 mice) | level of nonesterified fatty acid (A-ZIP/F-1 mice) | level of total cholesterol (A-ZIP/F-1 mice) | level of triglyceride (A-ZIP/F-1 mice) | plasma insulin levels [2] | further results |
| --- | --- | --- | --- | --- | --- | --- | --- | --- | --- | --- | --- | --- | --- | --- | --- | --- | --- | --- | --- | --- | --- |
| Nc1c(/N=N/c2ccc(-c3cccc4c3sc3ccccc34)nc2)cc(S(=O)(=O)[O-])c2ccccc12.[Na+] [Compound 57, 4-amino-3-(6-dibenzothiophene-4-ylpyridine-3-ylazo)naphthalene-1-sulfonic acid sodium salt] | did not increase | did not increase | did not increase | did not increase | did not increase | did not increase | did not increase | did not increase | did not increase | did not increase | slightly decreased | did not change | decreased | decreased | did not change | did not change | decreased | decreased | decreased | did not increase | random plasma glucose levels [2]: did not increase; weight gain caused by the high fat diet [2]: not observed; plasma insulin [3]: did not change; random plasma glucose levels [3]: did not change; body weight [3]: No difference |
| Cc1cc(F)ccc1-c1ccc(/N=N/c2cc(S(=O)(=O)[O-])c3ccccc3c2N)cn1.[Na+] [Compound 32, 4-amino-3-[6-(4-fluoro-2-methylphenyl)pyridine-3-ylazo]naphthalene-1-sulfonic acid sodium salt] | did not increase | did not increase | did not increase | did not increase | did not increase | did not increase | did not increase | did not increase | did not increase | did not increase | did not | did not change | did not change | did not change | did not change | did not change | did not change | did not change | did not change | did not increase | random plasma glucose levels [2]: did not increase; weight gain caused by the high fat diet [2]: not observed; plasma insulin [3]: did not change; random plasma glucose levels [3]: did not change; body weight [3]: No difference |
